{"source": "ChEMBL document CHEMBL1156451", "about": "(J Biol Chem, 2007)", "key": {"Acinetobacter baumannii": {"system": "Acinetobacter baumannii", "experiment": "Antibacterial activity against Acinetobacter baumannii ATCC 19606 after 24 hrs in Mueller-Hinton broth medium", "assay_type": "functional", "conditions": "ATCC 19606, 24 h"}, "HeLa [1]": {"system": "HeLa", "experiment": "Cytotoxicity against human HeLa cells at 100 ug/ml after 24 hrs by neutral red uptake assay relative to control", "assay_type": "functional"}, "Escherichia coli [2]": {"system": "Escherichia coli", "experiment": "Antibacterial activity against Escherichia coli ATCC 25922 after 24 hrs in Mueller-Hinton broth medium", "assay_type": "functional", "conditions": "ATCC 25922, 24 h"}, "[3]": {"system": "Bordetella bronchiseptica", "experiment": "Antibacterial activity against Bordetella bronchiseptica CUN 11844-99 after 24 hrs in Mueller-Hinton broth medium", "assay_type": "functional"}, "Brucella abortus [4]": {"system": "Brucella abortus", "experiment": "Antibacterial activity against Brucella abortus 9.19 (per-) after 24 hrs in Mueller-Hinton broth medium", "assay_type": "functional"}, "Staphylococcus aureus": {"system": "Staphylococcus aureus", "experiment": "Antibacterial activity against methicillin-resistant Staphylococcus aureus ATCC 43300 after 24 hrs in Mueller-Hinton broth medium", "assay_type": "functional", "conditions": "ATCC 43300, 24 h"}, "Brucella abortus [5]": {"system": "Brucella abortus", "experiment": "Antibacterial activity against Brucella abortus 9.49 (per-) after 48 hrs in Mueller-Hinton broth medium", "assay_type": "functional"}, "Escherichia coli [6]": {"system": "Escherichia coli", "experiment": "Antibacterial activity against Escherichia coli K12 ATCC 23716 after 24 hrs in Mueller-Hinton broth medium", "assay_type": "functional", "conditions": "K12, 24 h"}, "HeLa [7]": {"system": "HeLa", "experiment": "Cytotoxicity against human HeLa cells at 100 ug/ml after 24 hrs by MTT assay relative to control", "assay_type": "functional"}, "Escherichia coli [8]": {"system": "Escherichia coli", "experiment": "Antibacterial activity against Escherichia coli K12 ATCC 23716 in 10% Luria-Bertani medium/90% Hepes buffer at pH 7.0", "assay_type": "functional"}, "Pseudomonas aeruginosa": {"system": "Pseudomonas aeruginosa", "experiment": "Antibacterial activity against Pseudomonas aeruginosa CUN 4158-02 after 24 hrs in Mueller-Hinton broth medium", "assay_type": "functional"}, "[9]": {"experiment": "Toxicity in human erythrocytes assessed as hemolysis at 100 ug/ml", "assay_type": "cell-based, Erythrocyte", "conditions": "read-out: Activity"}}, "note": "Active and inactive are the calls of the source. No cut-off for these calls is given here. Where a SMILES comes first, the peptide text is derived from it.", "data": [{"smiles": "CC[C@H](C)[C@H](NC(=O)CN)C(=O)NCC(=O)N[C@@H](C)C(=O)N[C@H](C(=O)N[C@@H](CC(C)C)C(=O)N[C@@H](CCCCN)C(=O)N[C@H](C(=O)N[C@@H](CC(C)C)C(=O)N[C@H](C(=O)N[C@H](C(=O)NCC(=O)N[C@@H](CC(C)C)C(=O)N1CCC[C@H]1C(=O)N[C@@H](C)C(=O)N[C@@H](CC(C)C)C(=O)N[C@H](C(=O)N[C@@H](CO)C(=O)N[C@@H](Cc1c[nH]c2ccccc12)C(=O)N[C@H](C(=O)N[C@@H](CCCCN)C(=O)N[C@@H](CCCNC(=N)N)C(=O)N[C@@H](CCCCN)C(=O)N[C@@H](CCCNC(=N)N)C(=O)N[C@@H](CCC(N)=O)C(=O)N[C@@H](CCC(N)=O)C(N)=O)[C@@H](C)CC)[C@@H](C)CC)[C@@H](C)O)[C@@H](C)O)C(C)C)C(C)C", "note": "[MELITTIN]", "values": [{"measurement": "MBC", "setting": "Acinetobacter baumannii", "result": 2, "unit": "µg/mL"}, {"measurement": "MIC", "setting": "Acinetobacter baumannii", "result": 2, "unit": "µg/mL"}, {"measurement": "Activity", "setting": "HeLa [1]", "result": 86, "unit": "%"}, {"measurement": "MBC", "setting": "Escherichia coli [2]", "result": 4, "unit": "µg/mL"}, {"measurement": "MBC", "setting": "[3]", "result": 4, "unit": "µg/mL"}, {"measurement": "MIC", "setting": "[3]", "result": 4, "unit": "µg/mL"}, {"measurement": "MBC", "setting": "Brucella abortus [4]", "result": 4, "unit": "µg/mL"}, {"measurement": "MBC", "setting": "Staphylococcus aureus", "result": 2, "unit": "µg/mL"}, {"measurement": "MIC", "setting": "Brucella abortus [5]", "result": 4, "unit": "µg/mL"}, {"measurement": "MBC", "setting": "Escherichia coli [6]", "result": 4, "unit": "µg/mL"}, {"measurement": "Activity", "setting": "HeLa [7]", "result": 90.1, "unit": "%"}, {"measurement": "MBC", "setting": "Escherichia coli [8]", "result": 12.5, "unit": "µg/mL"}, {"measurement": "MBC", "setting": "Pseudomonas aeruginosa", "result": 16, "unit": "µg/mL"}]}, {"smiles": "CC[C@H](C)[C@H](NC(=O)[C@H](CCCCN)NC(=O)[C@H](CCCCN)NC(=O)[C@H](CO)NC(=O)[C@@H](NC(=O)CNC(=O)[C@H](CCCNC(=N)N)NC(=O)[C@H](CC(C)C)NC(=O)[C@@H](NC(=O)[C@@H](N)CCCCN)[C@@H](C)CC)C(C)C)C(=O)N[C@@H](CCSC)C(=O)N[C@@H](CCCNC(=N)N)C(=O)N[C@@H](CCCNC(=N)N)C(=O)N[C@H](C(=O)N[C@@H](CO)C(=O)N[C@@H](CCCCN)C(=O)N[C@@H](CC(=O)O)C(=O)N[C@H](C(=O)N[C@@H](CC(C)C)C(=O)N[C@H](C(=O)NCC(=O)N[C@@H](CCCCN)C(=O)N[C@@H](CCCCN)C(N)=O)[C@@H](C)O)[C@@H](C)CC)[C@@H](C)CC", "note": "(H-KILRGVSKKIMRRISKDILTGKK-NH2)", "values": [{"measurement": "MBC", "setting": "Acinetobacter baumannii", "result": 8, "unit": "µg/mL"}, {"measurement": "MIC", "setting": "Acinetobacter baumannii", "result": 8, "unit": "µg/mL"}, {"measurement": "MBC", "setting": "Escherichia coli [2]", "result": 64, "unit": "µg/mL"}, {"measurement": "MIC", "setting": "Escherichia coli [2]", "result": 16, "unit": "µg/mL"}, {"measurement": "MBC", "setting": "[3]", "result": 1, "unit": "µg/mL"}, {"measurement": "MIC", "setting": "[3]", "result": 1, "unit": "µg/mL"}, {"measurement": "MBC", "setting": "Brucella abortus [4]", "result": "> 128", "unit": "µg/mL"}, {"measurement": "MBC", "setting": "Staphylococcus aureus", "result": "> 256", "unit": "µg/mL"}, {"measurement": "MIC", "setting": "Staphylococcus aureus", "result": "> 256", "unit": "µg/mL"}, {"measurement": "hemolysis at 100 ug/ml", "setting": "[9]", "result": "< 5", "unit": "%"}, {"measurement": "MIC", "setting": "Brucella abortus [5]", "result": 4, "unit": "µg/mL"}, {"measurement": "MBC", "setting": "Escherichia coli [6]", "result": 16, "unit": "µg/mL"}, {"measurement": "MIC", "setting": "Escherichia coli [6]", "result": 16, "unit": "µg/mL"}, {"measurement": "Activity", "setting": "HeLa [7]", "result": "inactive"}, {"measurement": "MBC", "setting": "Escherichia coli [8]", "result": 25, "unit": "µg/mL"}, {"measurement": "MIC", "setting": "Escherichia coli [8]", "result": 12.5, "unit": "µg/mL"}, {"measurement": "MBC", "setting": "Pseudomonas aeruginosa", "result": 16, "unit": "µg/mL"}, {"measurement": "MIC", "setting": "Pseudomonas aeruginosa", "result": 16, "unit": "µg/mL"}]}, {"smiles": "CC[C@H](C)[C@H](NC(=O)[C@H](CCCNC(=N)N)NC(=O)[C@H](CCCNC(=N)N)NC(=O)[C@H](CC(C)C)NC(=O)[C@H](Cc1ccccc1)NC(=O)[C@@H](NC(=O)[C@H](CCCNC(=N)N)NC(=O)[C@H](CCSC)NC(=O)[C@@H](NC(=O)[C@H](CCCCN)NC(=O)[C@H](CCCCN)NC(=O)[C@H](CO)NC(=O)[C@@H](NC(=O)[C@@H](N)CCCCN)[C@@H](C)CC)[C@@H](C)CC)[C@@H](C)O)C(=O)N[C@@H](CO)C(=O)N[C@@H](CCCCN)C(=O)N[C@@H](CC(=O)O)C(=O)N[C@H](C(=O)N[C@@H](CC(C)C)C(=O)N[C@H](C(=O)NCC(=O)N[C@@H](CCCCN)C(=O)N[C@@H](CCCCN)C(N)=O)[C@@H](C)O)[C@@H](C)CC", "note": "(H-KISKKIMRTFLRRISKDILTGKK-NH2)", "values": [{"measurement": "MBC", "setting": "Acinetobacter baumannii", "result": 4, "unit": "µg/mL"}, {"measurement": "MIC", "setting": "Acinetobacter baumannii", "result": 4, "unit": "µg/mL"}, {"measurement": "MBC", "setting": "Escherichia coli [2]", "result": 4, "unit": "µg/mL"}, {"measurement": "MIC", "setting": "Escherichia coli [2]", "result": 4, "unit": "µg/mL"}, {"measurement": "MBC", "setting": "[3]", "result": 1, "unit": "µg/mL"}, {"measurement": "MIC", "setting": "[3]", "result": 1, "unit": "µg/mL"}, {"measurement": "MBC", "setting": "Brucella abortus [4]", "result": 64, "unit": "µg/mL"}, {"measurement": "MBC", "setting": "Staphylococcus aureus", "result": "> 256", "unit": "µg/mL"}, {"measurement": "MIC", "setting": "Staphylococcus aureus", "result": "> 256", "unit": "µg/mL"}, {"measurement": "hemolysis at 100 ug/ml", "setting": "[9]", "result": "< 5", "unit": "%"}, {"measurement": "MIC", "setting": "Brucella abortus [5]", "result": 2, "unit": "µg/mL"}, {"measurement": "MBC", "setting": "Escherichia coli [6]", "result": 4, "unit": "µg/mL"}, {"measurement": "MIC", "setting": "Escherichia coli [6]", "result": 4, "unit": "µg/mL"}, {"measurement": "Activity", "setting": "HeLa [7]", "result": "inactive"}, {"measurement": "MBC", "setting": "Escherichia coli [8]", "result": 12.5, "unit": "µg/mL"}, {"measurement": "MIC", "setting": "Escherichia coli [8]", "result": 12.5, "unit": "µg/mL"}, {"measurement": "MBC", "setting": "Pseudomonas aeruginosa", "result": 4, "unit": "µg/mL"}, {"measurement": "MIC", "setting": "Pseudomonas aeruginosa", "result": 4, "unit": "µg/mL"}]}, {"smiles": "CC[C@H](C)[C@H](NC(=O)[C@H](CCCCN)NC(=O)[C@H](CCCCN)NC(=O)[C@H](CO)NC(=O)[C@@H](NC(=O)[C@@H](N)CCCCN)[C@@H](C)CC)C(=O)N[C@@H](CCSC)C(=O)N[C@@H](CCCNC(=N)N)C(=O)N[C@H](C(=O)N[C@@H](Cc1ccccc1)C(=O)N[C@@H](CC(C)C)C(=O)N[C@@H](CCCNC(=N)N)C(=O)N[C@@H](CCCNC(=N)N)C(N)=O)[C@@H](C)O", "note": "(H-KISKKIMRTFLRR-NH2)", "values": [{"measurement": "MBC", "setting": "Acinetobacter baumannii", "result": 256, "unit": "µg/mL"}, {"measurement": "MIC", "setting": "Acinetobacter baumannii", "result": 256, "unit": "µg/mL"}, {"measurement": "Activity", "setting": "HeLa [1]", "result": 18.5, "unit": "%"}, {"measurement": "MBC", "setting": "Escherichia coli [2]", "result": 128, "unit": "µg/mL"}, {"measurement": "MIC", "setting": "Escherichia coli [2]", "result": 64, "unit": "µg/mL"}, {"measurement": "MBC", "setting": "[3]", "result": 32, "unit": "µg/mL"}, {"measurement": "MIC", "setting": "[3]", "result": 16, "unit": "µg/mL"}, {"measurement": "MBC", "setting": "Brucella abortus [4]", "result": "> 256", "unit": "µg/mL"}, {"measurement": "MBC", "setting": "Staphylococcus aureus", "result": "> 256", "unit": "µg/mL"}, {"measurement": "MIC", "setting": "Staphylococcus aureus", "result": "> 256", "unit": "µg/mL"}, {"measurement": "hemolysis at 100 ug/ml", "setting": "[9]", "result": "< 5", "unit": "%"}, {"measurement": "MIC", "setting": "Brucella abortus [5]", "result": 16, "unit": "µg/mL"}, {"measurement": "MBC", "setting": "Escherichia coli [6]", "result": 16, "unit": "µg/mL"}, {"measurement": "MIC", "setting": "Escherichia coli [6]", "result": 16, "unit": "µg/mL"}, {"measurement": "Activity", "setting": "HeLa [7]", "result": 6.4, "unit": "%"}, {"measurement": "MBC", "setting": "Escherichia coli [8]", "result": 12.5, "unit": "µg/mL"}, {"measurement": "MIC", "setting": "Escherichia coli [8]", "result": 12.5, "unit": "µg/mL"}, {"measurement": "MBC", "setting": "Pseudomonas aeruginosa", "result": 256, "unit": "µg/mL"}, {"measurement": "MIC", "setting": "Pseudomonas aeruginosa", "result": 256, "unit": "µg/mL"}]}]}
